This note sets out measurements from patent US10808041B2, “Lincosamides universal monoclonal antibody hybridoma cell strain and application thereof” (Jiangnan University, priority 2017, dated 2020).

The assay has as its system lincosamides universal monoclonal antibody secreted by monoclonal cell strain CGMCC No. 14691. Kind of assay: indirect competitive ELISA with coating antigen Lin-OVA. The assay is classed as binding, BALB/c mice. As to conditions: lincosamides standard substances competing with coating antigen Lin-OVA. How it is done:
The specific ELISA procedure was as follows:
Coating: the coating antigen was subjected to gradient dilution with a 0.05 M pH 9.6 carbonate buffer solution, and incubated at 37° C. for 2 h at 100 μL/well.
Washing: a solution in a plate was decanted, and 200 μL of a PBST solution was injected into each well, placed on a shaker to shake for 3 min, spin-dried, and washed 3 times. The following washing method was the same.
Blocking: After patting dry, 200 μL of a blocking buffer was added to each well, and incubated at a temperature of 37° C. for 2 h. After washing, the product was dried to be ready for use.
Color development: the ELISA plate was taken out, and fully washed, and then 100 μL of a color developing solution (the ratio of TMB to a substrate liquid is 1:5) was added to each well to react at a temperature of 37° C. for 15 min in the dark.
Stopping and determination: the ELISA plate was taken out, 50 μL of a stop solution (2 mol/L sulfuric acid) was added to each well to stop the reaction, and then the absorbance A450 of each well was determined by an ELISA reader.
On the technique in general: ELISA stands for enzyme-linked immunosorbent assay.

On to `CCC[C@@H]1C[C@@H](C(=O)N[C@@H]([C@H]2O[C@H](SC)[C@H](O)[C@@H](O)[C@H]2O)[C@@H](C)O)N(C)C1` [lincomycin], for which the “half inhibition concentration (IC50) of the monoclonal antibody” value was determined as 0.004339 µg/mL.
`CC[C@@H]1CCN[C@H](C(=O)N[C@@H]([C@H]2O[C@H](SC)[C@H](O)[C@@H](O)[C@H]2O)[C@H](C)Cl)C1` [pirlimycin]: the “half inhibition concentration (IC50) of the monoclonal antibody” value is 0.019314 µg/mL.
